Source: ChEMBL document CHEMBL1152256, “Synthesis of Arabino glycosyl triazoles as potential inhibitors of mycobacterial cell wall biosynthesis” (2008)
Activity calls are given as the source filed them. The calls are words filed in the database; no cut-off is given here.

tested on: Escherichia coli; assay: Antibacterial activity against Escherichia coli JM109 at 1 mg/mL; type: functional, organism-based

Structure (SMILES) | Activity
CCCCCCCCc1cn([C@@H]2O[C@H](CO)[C@@H](O)[C@@H]2O)nn1 | inactive
OC[C@H]1O[C@@H](n2cc(-c3ccccc3)nn2)[C@@H](O)[C@@H]1O | inactive
CCCCCCc1cn([C@@H]2O[C@H](CO)[C@@H](O)[C@@H]2O)nn1 | inactive
CCCCCCCCCCc1cn([C@@H]2O[C@H](CO)[C@@H](O)[C@@H]2O)nn1 | inactive
CCCCCCCCCCCCCCOCc1cn([C@@H]2O[C@H](CO)[C@@H](O)[C@@H]2O)nn1 | inactive
CC(C)=CCC/C(C)=C/CC/C(C)=C/COCc1cn([C@@H]2O[C@H](CO)[C@@H](O)[C@@H]2O)nn1 | inactive
